Assay results: paper PMC10552892, “Ebselen oxide and derivatives are new allosteric HER2 inhibitors for HER2‐positive cancers” (Molecular Oncology, 2023)

How the values were obtained:
SKBR3 = assay: Incucyte proliferation, single agents and combinations, SKBR3; type: cell-based; settings: Homo sapiens, SK-BR-3, 96 h; read-out: Reduction/inhibition of cell proliferation
Protocol: (A–C) Proliferation curves of HER2‐positive (SKBR3, A; BT474, B; NCI‐N87, C) cancer cell lines treated or not with ebselen oxide (10 μM), lapatinib (10–1000 nM), or combination of these agents, as indicated. Proliferation was assessed overtime by Incucyte during 4 days. Data are mean ± SD (n = 8–12) of a representative experiment out of 4 (A), 3 (B), or 2 (C) independent experiments. […] Proliferation was assessed by Incucyte during 4 days. […] Scale bars are […].

[1] = biological target: T1, JMHER2/FERME interaction (biot-JMHER2 peptide and GST-FERME, N-terminal FERM domain of ezrin) (Homo sapiens, UniProt P04626); assay: AlphaScreen competition of HER2 juxtamembrane peptide / ezrin FERM domain interaction; type: binding; settings: AlphaScreen, 20 h
T1 construct: purchased Proteogenix
Protocol: Biotinylated peptide derived from HER2 cytosolic juxtamembrane region (JMHER2, […] ) has been synthesized by Proteogenix (Schiltigheim, France). The binding reaction was described previously. Briefly, white 384‐well Optiplates (PerkinElmer, Whalham, MA, USA) were used to prepare GST‐FERME and biotinylated peptide in a binding buffer (PBS, pH 7.4, 5 mM MgCl2, and 0.02% CHAPS). GST‐FERME was incubated with biotinylated‐HER2 for 30 min at room temperature. AlphaScreen® Streptavidin Donor beads (20 μg·mL^−1) and Glutathione AlphaLISA® Acceptor Beads (20 μg·mL^−1) were added to the wells for overnight incubation in the dark and at room temperature. Light signal was detected with the EnVision® multilabel plate reader (PerkinElmer).
Ebselen came out as an interesting hit. Ebselen is a synthetic organoselenium compound with the anti‐inflammatory and antioxidant property that has been evaluated in clinical trials for ischemic stroke and acute hearing loss. However, in vivo, ebselen rapidly reacts with peroxynitrite to form ebselen oxide. […] In addition, using surface plasmon resonance (SPR), we confirmed that both compounds could directly bind to JMHER2 (Fig. 1E,F). […] The slight decrease in HER2 expression was not significant. To examine whether HER2 inhibition by ebselen oxide was dependent on JMHER2/FERME interaction, we transfected HBMEC cells with a previously described glycoprotein D‐tagged HER2 form mutated on the critical amino acids involved in ERM binding (gD‐HER2‐EBM*).

`O=C1c2ccccc2[Se](=O)N1c1ccccc1` (stereo not drawn) [Ebselen oxide, ebselen oxide] showed an inhibition at 10 µM (SKBR3) of 64%, an IC50 [1] of 634 nM and an EC50 ([1]; read-out: EC50, μM (inhibition of HER2-FERME interaction)) of 0.634 µM.
